According to ChEMBL document CHEMBL4680188 (Eur J Med Chem, 2020):
The source made the active and inactive calls. No cut-off for these calls is given here.

Experiments:
[1] = molecular target: T1, 5-hydroxytryptamine receptor 2C (Homo sapiens) (UniProt P28335); assay: Binding affinity to human 5HT2C expressed in CHO cells; assay type: cell-based
T1 sequence (whole entry): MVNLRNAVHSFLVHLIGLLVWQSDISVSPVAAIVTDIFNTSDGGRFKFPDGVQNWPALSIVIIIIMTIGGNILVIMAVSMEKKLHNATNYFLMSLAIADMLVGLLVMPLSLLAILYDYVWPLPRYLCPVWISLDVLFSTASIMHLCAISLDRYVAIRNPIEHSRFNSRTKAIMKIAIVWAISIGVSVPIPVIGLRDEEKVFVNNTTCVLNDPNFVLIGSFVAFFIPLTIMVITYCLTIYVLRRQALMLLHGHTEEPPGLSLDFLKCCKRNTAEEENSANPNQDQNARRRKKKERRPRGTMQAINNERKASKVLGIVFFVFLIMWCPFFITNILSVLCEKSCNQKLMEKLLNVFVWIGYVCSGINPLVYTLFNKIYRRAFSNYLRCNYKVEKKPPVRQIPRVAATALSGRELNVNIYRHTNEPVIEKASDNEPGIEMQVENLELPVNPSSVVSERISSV

[2] = molecular target: T2, Melatonin receptor type 1A (Homo sapiens, UniProt P48039); assay: Displacement of 2-[125l]-lodomelatonin from human MT1 expressed in CHO cells incubated for 120 mins by radioligand binding assay; assay type: cell-based
T2 sequence (P48039 whole entry): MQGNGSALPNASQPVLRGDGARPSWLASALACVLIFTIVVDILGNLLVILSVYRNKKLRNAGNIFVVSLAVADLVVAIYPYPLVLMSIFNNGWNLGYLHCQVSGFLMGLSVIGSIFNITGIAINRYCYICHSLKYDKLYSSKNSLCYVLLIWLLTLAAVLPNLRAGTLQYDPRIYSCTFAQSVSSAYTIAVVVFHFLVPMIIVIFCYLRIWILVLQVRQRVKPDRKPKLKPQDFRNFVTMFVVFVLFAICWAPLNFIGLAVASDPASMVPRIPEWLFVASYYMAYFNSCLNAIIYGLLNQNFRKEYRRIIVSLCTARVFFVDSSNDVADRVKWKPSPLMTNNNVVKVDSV

[3] = molecular target: T3, Melatonin receptor type 1B (Homo sapiens, UniProt P49286); assay: Displacement of 2-[125l]-lodomelatonin from human MT2 expressed in CHO cells incubated for 120 mins by radioligand binding assay; assay type: cell-based
T3 sequence (P49286 whole entry): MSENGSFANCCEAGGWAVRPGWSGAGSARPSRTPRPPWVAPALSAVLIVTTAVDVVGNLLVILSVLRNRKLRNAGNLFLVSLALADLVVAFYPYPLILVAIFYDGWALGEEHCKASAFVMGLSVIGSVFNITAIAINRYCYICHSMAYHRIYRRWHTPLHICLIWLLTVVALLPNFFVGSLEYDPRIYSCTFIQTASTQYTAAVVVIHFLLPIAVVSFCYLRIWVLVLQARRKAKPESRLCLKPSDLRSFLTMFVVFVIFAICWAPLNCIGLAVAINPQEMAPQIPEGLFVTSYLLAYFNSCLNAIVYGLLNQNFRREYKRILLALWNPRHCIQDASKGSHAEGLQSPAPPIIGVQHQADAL

[4] = molecular target: T2, Melatonin receptor type 1A; assay: Agonist activity at human MT1 expressed in CHO cell membrane incubated for 1 hr by [35S]GTPgammaS binding assay; assay type: functional, cell membranes
[5] = molecular target: T3, Melatonin receptor type 1B; assay: Agonist activity at human MT2 expressed in CHO cell membrane incubated for 1 hr by [35S]GTPgammaS binding assay; assay type: functional, cell membranes
[6] = Oral bioavailability in rat; assay type: ADME, organism-based; conditions: in vivo
[7] = Oral bioavailability in human; assay type: ADME, organism-based; conditions: in vivo
[8] = Permeability in human Caco-2 cells; assay type: ADME, cell-based

| Activity [1] | Ki [2] [nM] | Ki [3] [nM] | EC50 [4] [nM] | EC50 [5] [nM] | bioavailability [6] [%] | bioavailability [7] [%] | permeability [8] [%] | Structure (SMILES) |
| --- | --- | --- | --- | --- | --- | --- | --- | --- |
| inactive | 230 | 115 | 2600 | 835 | 92 | 97 | 100 | COc1ccc2ncnc(CCNC(C)=O)c2c1 |
| inactive | 3020 | 1370 | > 10000 | 1250 |  |  |  | COc1ccc2cnnc(CCNC(=O)C3CC3)c2c1 |
| inactive | > 10000 | > 10000 |  |  |  |  |  | COc1ccc2ncnc(NCCNC(C)=O)c2c1 |
| inactive | > 10000 | 3300 |  |  |  |  |  | COc1ccc2ncnc(N3CCN(C(=O)C4CC4)CC3)c2c1 |
| inactive | 1140 | 108 | > 10000 | 89 | 33 | 36 | 100 | CCCC(=O)NCCc1nncc2ccc(OC)cc12 |
| inactive | 896 | 15.6 | > 10000 | 237 | 2 | 7 | 100 | COc1ccc2nc(-c3ccccc3)nc(CCNC(C)=O)c2c1 |
| inactive | 1470 | 414 | > 10000 | 327 | 54 | 46 | 100 | CCC(=O)NCCc1nncc2ccc(OC)cc12 |
| inactive | > 10000 | 2800 |  |  |  |  |  | CCNC(=O)N1CCN(c2ncnc3ccc(OC)cc23)CC1 |
| inactive | 549 | 398 |  |  |  |  |  | COc1ccc2ncnc(CCNC(=O)C3CC3)c2c1 |
| inactive | 500 | 46 | 321 | 543 |  |  |  | COc1cccc(-c2nc(CCNC(C)=O)c3cc(OC)ccc3n2)c1 |
| inactive | 2110 | 799 | > 10000 | 428 |  |  | 2 | COc1ccc2cnnc(CCNC(C)=O)c2c1 |
| inactive | 320 | 41 | 652 | 219 | 69 | 36 |  | CCCC(=O)NCCc1ncnc2ccc(OC)cc12 |
|  |  |  |  |  | 13 | 11 | 100 | COc1ccc2cccc(CCNC(C)=O)c2c1 [AGOMELATINE] |
| inactive | 210 | 41.1 | 432 | 238 |  |  |  | CCC(=O)NCCc1ncnc2ccc(OC)cc12 |
